Test results: patent publication US20140303092A1 (CHIMERIX, INC., priority 2011, published 2014)

Assay: Study HDP-CDV-201: safety and tolerability (adverse events, laboratory abnormalities, discontinuations)
Assay type: in vivo, human (adult allogeneic HSCT recipients)
Experimental: Clinical Studies of HDP-CDV were performed and described in detail in the following Examples. For example, HDP-CDV-201 is a placebo-controlled, dose-escalating trial in HSCT CMV (R+) recipients, evaluating the ability of HDP-CDV to prevent or control CMV infection was carried out. Five cohorts were established in which participants or subjects received either placebo or the HDP-CDV orally, in doses ranging from 40 mg weekly (QW) to 200 mg twice weekly (BIW). Subjects who were post-HSCT were enrolled at the time of engraftment and randomized to HDP-CDV or placebo (3 to 1 ratio) and received blinded therapy until approximately 100 day post-transplantation. HDP-CDV doses were 40 mg QW, 100 mg QW, 200 mg QW, 200 mg BIW and 100 mg BIW. Escalation to the next dose was decided by the data monitoring committee after review of the safety data from the previous Cohort. Subjects who developed CMV disease or CMV infection requiring pre-emptive therapy with local standard of care were discontinued from blinded therapy and followed for 4 weeks. Subjects who completed treatment with blinded therapy were followed for 8 weeks post-therapy.
Data from Study HDP-CDV-201 also provided characterization of the safety and tolerability profile of HDP-CDV when administered for the prevention or control of CMV infection in high risk (R^+) post-HSCT adult subjects.
The Safety population (SAFETY) included all randomized subjects who took at least one dose of study treatment. This population was used to summarize safety outcomes based on the treatment actually received, in cases where a subject was treated contrary to the randomization schedule.
The safety and tolerability profile of HDP-CDV, including subject demographics and Baseline characteristics; the AE profile; and laboratory abnormalities of interest were analyzed in the cohorts followed in this investigation.
Subjects completing the treatment period received a full course of study medication; those completing the entire study attended visits through 8 weeks of follow up. Subjects who discontinued treatment may have done so for protocol specified reasons (e.g. development of clinically significant CMV infection requiring preemptive treatment with excluded anti-CMV medications) or for other reasons (e.g., withdrawal, adverse events, loss to follow-up). The disposition of subjects in Study HDP-CDV-201 during the double-blind, placebo-controlled treatment period (through Week 11) is listed by dosing Cohort in TABLE 23.
Adverse events were examined by severity to ensure that all safety signals were identified in this study population. Because of the frequency of events in HSCT recipients, particular attention was given to evaluation of Grade 3 […], 4 (severe), and 5 (fatal) adverse events.
Only those preferred terms for which at least one Grade 3 or higher event was experienced in any treatment group are listed. Cytomegalovirus-related AEs are excluded from this analysis.
HDP-CDV is a lipid conjugate of CDV. Because CDV is known to have adverse effects on renal function and bone marrow, decreased GFR and persistent neutropenia were identified as AEs of special interest. Key renal and hematological (TABLE 30) laboratory parameters were measured and listed below by Study HDP-CDV-201 treatment groups. TABLE 30 includes abnormal levels of serum creatinine, neutrophils, platelets, WBCs, and hemoglobin and includes data at Screening and during the treatment period.
A common metric for unit based dosing of medications is by weight (mg/kg). When the distribution of weights was examined for all subjects participating in the study, the median was 78 kg and the lower 25th percentile weight was approximately 65 kg, which translates to a cut-off of ˜3 mg/kg for a 200 mg total weekly dose. Based upon this approach, a cut-off of 3 mg/kg was used to assess the frequency of diarrhea and associated GI AEs reported for the subjects in Cohorts 3 or 4a (TABLE 40).

[1] = Cohort 1, 40 mg QW, through Week 11

Q: What does the source list for `CCCCCCCCCCCCCCCCOCCCOP(=O)(O)COC(CO)Cn1ccc(N)nc1=O` (stereo not drawn) [HDP-CDV]?
A: Gastrointestinal AE Abdominal discomfort, subjects (Cohort 1, 40 mg QW): 0; Gastrointestinal AE Abdominal distention, subjects (Cohort 1, 40 mg QW): 2 (8.0%); Gastrointestinal AE Abdominal pain upper, subjects (Cohort 1, 40 mg QW): 1 (4.0%); Gastrointestinal AE Abdominal pain, subjects (Cohort 1, 40 mg QW): 4 (16.0%); Gastrointestinal AE Constipation, subjects (Cohort 1, 40 mg QW): 1 (4.0%); Gastrointestinal AE Diarrhoea, subjects (Cohort 1, 40 mg QW): 3 (12.0%); Gastrointestinal AE Diverticulum intestinal haemorragic, subjects (Cohort 1, 40 mg QW): 0; Gastrointestinal AE Dyspepsia, subjects (Cohort 1, 40 mg QW): 3 (12.0%); Gastrointestinal AE Dysphagia, subjects (Cohort 1, 40 mg QW): 0; Gastrointestinal AE Epigastric discomfort, subjects (Cohort 1, 40 mg QW): 1 (4.0%); Gastrointestinal AE Flatulence, subjects (Cohort 1, 40 mg QW): 0; Gastrointestinal AE GERD, subjects (Cohort 1, 40 mg QW): 2 (8.0%); Gastrointestinal AE Gastritis, subjects (Cohort 1, 40 mg QW): 0; Gastrointestinal AE Haematochezia, subjects (Cohort 1, 40 mg QW): 1 (4.0%); Gastrointestinal AE Haemorroids, subjects (Cohort 1, 40 mg QW): 1 (4.0%); Gastrointestinal AE Large intestinal ulcer, subjects (Cohort 1, 40 mg QW): 1 (4.0%); Gastrointestinal AE Nausea, subjects (Cohort 1, 40 mg QW): 6 (24.0%); Gastrointestinal AE Odynophagia, subjects (Cohort 1, 40 mg QW): 0; Gastrointestinal AE Oesophagitis, subjects (Cohort 1, 40 mg QW): 1 (4.0%); Gastrointestinal AE Retching, subjects (Cohort 1, 40 mg QW): 0; Gastrointestinal AE Vomiting, subjects (Cohort 1, 40 mg QW): 2 (8.0%); Hepatobiliary clinical AE Cholelithiasis, subjects (Cohort 1, 40 mg QW): 1 (4.0%); Hepatobiliary clinical AE Hepatomegaly, subjects (Cohort 1, 40 mg QW): 0; Hepatobiliary clinical AE Hyperbilirubinaemia, subjects (Cohort 1, 40 mg QW): 1 (4.0%); Hepatobiliary clinical AE Jaundice, subjects (Cohort 1, 40 mg QW): 0; Hepatobiliary clinical AE Liver injury, subjects (Cohort 1, 40 mg QW): 0; Intensity of Gastrointestinal AEs, Grade 1, subjects (Cohort 1, 40 mg QW): 9 (36.0%); Intensity of Gastrointestinal AEs, Grade 2, subjects (Cohort 1, 40 mg QW): 6 (24.0%); Intensity of Gastrointestinal AEs, Grade 3, subjects (Cohort 1, 40 mg QW): 2 (8.0%); Intensity of Gastrointestinal AEs, Grade 4, subjects (Cohort 1, 40 mg QW): 0; Intensity of Gastrointestinal AEs, Grade 5, subjects (Cohort 1, 40 mg QW): 0; Serum ALT level, Median fold increase from Baseline at Follow-up Week 1 (Cohort 1, 40 mg QW): 1.50 fold; Serum ALT level, Median fold increase from Baseline at Follow-up Week 4 (Cohort 1, 40 mg QW): 1.00 fold; Serum ALT level, Peak Median fold increase from Baseline (Cohort 1, 40 mg QW): 1.80 fold; Subjects completed study (Cohort 1, 40 mg QW): 7 (28.0%) n (%); Total Bilirubin (Screening) >1-[…] ULN, subjects (Cohort 1, 40 mg QW): 1 (4.0%); Total Bilirubin (Screening) >1.5-3 × ULN, subjects (Cohort 1, 40 mg QW): 3 (12.0%); Total Bilirubin (Screening) >3-10 × ULN, subjects (Cohort 1, 40 mg QW): 0; Total Bilirubin (Screening) >10 × ULN, subjects (Cohort 1, 40 mg QW): 0; Total Bilirubin (any time during therapy) >1-[…] ULN, subjects (Cohort 1, 40 mg QW): 3 (13.0%); Total Bilirubin (any time during therapy) >1.5-3 × ULN, subjects (Cohort 1, 40 mg QW): 1 (4.3%); Total Bilirubin (any time during therapy) >3-10 × ULN, subjects (Cohort 1, 40 mg QW): 0; Total Bilirubin (any time during therapy) >10 × ULN, subjects (Cohort 1, 40 mg QW): 0; Abdominal pain leading to study drug withdrawal (Cohort 1, 40 mg QW, N = 25): 0%; All AEs leading to withdrawal (Cohort 1, 40 mg QW, N = 25): 15 (60.0%); Diarrhoea leading to study drug withdrawal (Cohort 1, 40 mg QW, N = 25): 0%; Dyspepsia leading to study drug withdrawal (Cohort 1, 40 mg QW, N = 25): 0%; Nausea leading to study drug withdrawal (Cohort 1, 40 mg QW, N = 25): 0%; TEAE ALT increased (Cohort 1, 40 mg QW, N = 25): 2 (8.0%) n (%); TEAE AST increased (Cohort 1, 40 mg QW, N = 25): 1 (4.0%) n (%); TEAE Abdominal pain (Cohort 1, 40 mg QW, N = 25): 4 (16.0%) n (%); TEAE Abdominal pain, Upper (Cohort 1, 40 mg QW, N = 25): 1 (4.0%) n (%); TEAE Acute GVHD (Cohort 1, 40 mg QW, N = 25): 6 (24.0%) n (%); TEAE Acute Myeloid Leukemia recurrent (Cohort 1, 40 mg QW, N = 25): 3 (12.0%) n (%); TEAE Acute Renal Failure (Cohort 1, 40 mg QW, N = 25): 2 (8.0%) n (%); TEAE Anxiety (Cohort 1, 40 mg QW, N = 25): 0 n (%); TEAE Arthralgias (Cohort 1, 40 mg QW, N = 25): 0 n (%); TEAE Back Pain (Cohort 1, 40 mg QW, N = 25): 0 n (%); TEAE Blood lactate dehydrogenase increased (Cohort 1, 40 mg QW, N = 25): 0 n (%); TEAE Creatinine increased (Cohort 1, 40 mg QW, N = 25): 0 n (%); TEAE Cytomegalovirus viremia (Cohort 1, 40 mg QW, N = 25): 10 (40.0%) n (%); TEAE Decreased appetite (Cohort 1, 40 mg QW, N = 25): 4 (16.0%) n (%); TEAE Diarrhoea (Cohort 1, 40 mg QW, N = 25): 3 (12.0%) n (%); TEAE Dysgeusia (Cohort 1, 40 mg QW, N = 25): 1 (4.0%) n (%); TEAE Fatigue (Cohort 1, 40 mg QW, N = 25): 1 (4.0%) n (%); TEAE GI Reflux Disease (Cohort 1, 40 mg QW, N = 25): 2 (8.0%) n (%); TEAE Gamma-glutamyltransferase increased (Cohort 1, 40 mg QW, N = 25): 0 n (%); TEAE Generalized oedema (Cohort 1, 40 mg QW, N = 25): 1 (4.0%) n (%); TEAE Hyperbilirubinaemia (Cohort 1, 40 mg QW, N = 25): 1 (4.0%) n (%); TEAE Hyperglycaemia (Cohort 1, 40 mg QW, N = 25): 1 (4.0%) n (%); TEAE Hyperkalemia (Cohort 1, 40 mg QW, N = 25): 1 (4.0%) n (%); TEAE Hypocalcaemia (Cohort 1, 40 mg QW, N = 25): 1 (4.0%) n (%); TEAE Hypokalaemia (Cohort 1, 40 mg QW, N = 25): 4 (16.0%) n (%); TEAE Hyponatraemia (Cohort 1, 40 mg QW, N = 25): 3 (12.0%) n (%); TEAE Increased leukocytosis (Cohort 1, 40 mg QW, N = 25): 1 (4.0%) n (%); TEAE Insomnia (Cohort 1, 40 mg QW, N = 25): 2 (8.0%) n (%); TEAE Liver function test abnormal (Cohort 1, 40 mg QW, N = 25): 0 n (%); TEAE Malnutrition (Cohort 1, 40 mg QW, N = 25): 0 n (%); TEAE Nausea (Cohort 1, 40 mg QW, N = 25): 6 (24.0%) n (%); TEAE Neutropenia (Cohort 1, 40 mg QW, N = 25): 2 (8.0%) n (%); TEAE Oedema peripheral (Cohort 1, 40 mg QW, N = 25): 3 (12.0%) n (%); TEAE Oral Candidiasis (Cohort 1, 40 mg QW, N = 25): 0 n (%); TEAE Pneumonia (Cohort 1, 40 mg QW, N = 25): 1 (4.0%) n (%); TEAE Pyrexia (Cohort 1, 40 mg QW, N = 25): 1 (4.0%) n (%); TEAE Recurrent flatulence (Cohort 1, 40 mg QW, N = 25): 0 n (%); TEAE Renal Failure (Cohort 1, 40 mg QW, N = 25): 1 (4.0%) n (%); TEAE Staphylococcal Bacteremia (Cohort 1, 40 mg QW, N = 25): 0 n (%); TEAE Thrombocytopenia (Cohort 1, 40 mg QW, N = 25): 3 (12.0%) n (%); TEAE Tremor (Cohort 1, 40 mg QW, N = 25): 3 (12.0%) n (%); TEAE Vomiting (Cohort 1, 40 mg QW, N = 25): 2 (8.0%) n (%); Vomiting leading to study drug withdrawal (Cohort 1, 40 mg QW, N = 25): 0%; All AEs, Grade 5 (deaths) (Cohort 1, 40 mg QW, N = 25, entire study duration): 2 (8.0%); Subjects completed treatment [1]: 9 (36.0%) n (%); Subjects who permanently discontinued treatment [1]: 16 (64.0%) n (%); subjects discontinued due to neutropenia (Cohort 2): 1 subject(s); ALT (Screening) >3 × ULN-5 × ULN, subjects (Cohort 2, 100 mg QW): 0; ALT (Screening) >5 × ULN-10 × ULN, subjects (Cohort 2, 100 mg QW): 0; ALT (Screening) >10 × ULN-20 × ULN, subjects (Cohort 2, 100 mg QW): 0; ALT (Screening) >20 × ULN, subjects (Cohort 2, 100 mg QW): 0; ALT (any time during therapy) >3 × ULN-5 × ULN, subjects (Cohort 2, 100 mg QW): 1 (3.7%); ALT (any time during therapy) >5 × ULN-10 × ULN, subjects (Cohort 2, 100 mg QW): 0; ALT (any time during therapy) >10 × ULN-20 × ULN, subjects (Cohort 2, 100 mg QW): 1 (3.7%); ALT (any time during therapy) >20 × ULN, subjects (Cohort 2, 100 mg QW): 0; AST (Screening) >3 × ULN-5 × ULN, subjects (Cohort 2, 100 mg QW): 0; AST (Screening) >5 × ULN-10 × ULN, subjects (Cohort 2, 100 mg QW): 0; AST (Screening) >10 × ULN-20 × ULN, subjects (Cohort 2, 100 mg QW): 0; AST (Screening) >20 × ULN, subjects (Cohort 2, 100 mg QW): 0; AST (any time during therapy) >3 × ULN-5 × ULN, subjects (Cohort 2, 100 mg QW): 1 (3.7%); AST (any time during therapy) >5 × ULN-10 × ULN, subjects (Cohort 2, 100 mg QW): 0; AST (any time during therapy) >10 × ULN-20 × ULN, subjects (Cohort 2, 100 mg QW): 0; AST (any time during therapy) >20 × ULN, subjects (Cohort 2, 100 mg QW): 0
